Here are results for seven molecules from paper PMC4024383 (European journal of medicinal chemistry, 2014).

The nature of data set [1]: Human cell growth inhibition assay. Type of data set: cell-based. The settings on record: HepG2 cells (liver).
In the next data set the target is recombinant PfCDPK4 (Plasmodium falciparum, UniProt Q8IBS5). Nature of the data set: PfCDPK4 luminescence-based. The format is biochemical. Particulars: for fold more potent against PfCDPK4 than PfCDPK1: ratio of IC50s.
Chain of recombinant PfCDPK4 (Q8IBS5 whole entry): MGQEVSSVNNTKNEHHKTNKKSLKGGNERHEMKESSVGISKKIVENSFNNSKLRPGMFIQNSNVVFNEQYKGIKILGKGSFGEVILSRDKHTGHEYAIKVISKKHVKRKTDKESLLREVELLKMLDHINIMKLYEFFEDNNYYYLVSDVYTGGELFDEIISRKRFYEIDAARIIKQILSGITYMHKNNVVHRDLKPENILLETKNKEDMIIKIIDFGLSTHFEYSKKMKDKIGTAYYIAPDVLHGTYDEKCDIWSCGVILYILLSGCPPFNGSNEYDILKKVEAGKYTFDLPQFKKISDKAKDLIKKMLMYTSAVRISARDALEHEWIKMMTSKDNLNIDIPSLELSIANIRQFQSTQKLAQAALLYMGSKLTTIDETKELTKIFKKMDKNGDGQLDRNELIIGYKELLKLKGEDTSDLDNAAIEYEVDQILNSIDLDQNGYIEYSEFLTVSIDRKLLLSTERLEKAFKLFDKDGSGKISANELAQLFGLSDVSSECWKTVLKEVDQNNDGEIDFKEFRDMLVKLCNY
Data set [2] deals with P. falciparum gametocyte exflagellation. In words: P. falciparum exflagellation assay. Type of data set: cell-based. The settings on record: Plasmodium falciparum, read-out: P. falciparum exflagellation inhibition EC50.
Data set [3] is described as follows: Human cell growth inhibition assay. The format is cell-based. Particulars: CRL-8155 cells (lymphocytic).
The next data set relates to PfCDPK1. In words: PfCDPK1 enzymatic assay. The format is biochemical, Plasmodium falciparum. The settings on record: ratio of IC50s.
The target in a further data set is T1, Abl tyrosine kinase (Homo sapiens, UniProt P00519).
T1 sequence (P00519 229-512 limits assumed): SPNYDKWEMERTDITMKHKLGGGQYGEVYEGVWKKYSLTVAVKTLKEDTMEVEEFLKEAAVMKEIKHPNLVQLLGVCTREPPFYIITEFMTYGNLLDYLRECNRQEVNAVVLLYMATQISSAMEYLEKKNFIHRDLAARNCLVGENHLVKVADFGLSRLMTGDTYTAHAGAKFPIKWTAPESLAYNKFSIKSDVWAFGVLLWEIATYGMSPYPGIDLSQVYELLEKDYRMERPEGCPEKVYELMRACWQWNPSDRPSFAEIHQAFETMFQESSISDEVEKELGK
Nature of the data set: Abl radioactive kinase assay. Type of data set: biochemical.

Another data set relates to Src kinase. In words: Src radioactive kinase assay. The settings on record: ratio of IC50s.

The structures appear in SMILES notation.

In general, GI50 refers to the concentration at which growth is held to half of that of the control. Lower therefore signals greater sensitivity of the cells. As a reminder, the IC50 is the concentration that inhibits the measured activity by half. For orientation: EC50 means the concentration giving half of the maximal effect.

Regarding `Nc1ncnc2c1c(-c1ccc3cc(OC4CC4)ccc3c1)nn2CC1CCNCC1` [37j, 3-(6-cyclopropoxynaphthalen-2-yl)-1-(piperidin-4-ylmethyl)-1H-pyrazolo[3,4-d]pyrimidin-4-amine], the GI50 in data set [1] and in data set [3] was > 30000 nM each time. Also, on recombinant PfCDPK4, the IC50 was 2 nM. For the same molecule, the EC50 in data set [2] was < 40 nM.

`CC(C)n1nc(-c2ccc3nc(OCc4ccccc4)ccc3c2)c2c(N)ncnc21` [33a, 3-(2-(benzyloxy)quinolin-6-yl)-1-isopropyl-1H-pyrazolo[3,4-d]pyrimidin-4-amine]: the “fold more potent against PfCDPK1 than PfCDPK4” value in the data set on PfCDPK1 is > 3 fold.

Take `CCOc1ccc2cc(-c3nn(CC(C)(C)CO)c4ncnc(N)c34)ccc2n1` [30u, 3-(4-amino-3-(2-ethoxyquinolin-6-yl)-1H-pyrazolo[3,4-d]pyrimidin-1-yl)-2,2-dimethylpropan-1-ol]: the GI50 in data set [1] and in data set [3] was > 30000 nM each time. Also, the half-inhibitory concentration (IC50) at recombinant PfCDPK4 is 4 nM; on Abl tyrosine kinase it was > 10000 nM. For the same molecule, the EC50 in data set [2] was < 40 nM.

Regarding `CCOc1ccc2cc(-c3nn(CC4CNC4)c4ncnc(N)c34)ccc2c1` [17g, 1-(azetidin-3-ylmethyl)-3-(6-ethoxynaphthalen-2-yl)-1H-pyrazolo[3,4-d]pyrimidin-4-amine], in the data set with Src kinase, the “selectivity for PfCDPK4 over Src” value is “greater than 1300 fold”.

`CCOc1ccc2cc(-c3nn(C(C)C)c4ncnc(N)c34)ccc2n1` [30a, 3-(2-ethoxyquinolin-6-yl)-1-isopropyl-1H-pyrazolo[3,4-d]pyrimidin-4-amine]: on recombinant PfCDPK4, the IC50 was < 20 nM and the “fold more potent against PfCDPK4 than PfCDPK1” value is listed as > 5 fold.

On to `CCOc1ccc2cc(-c3nn(C(C)C)c4ncnc(N)c34)cc(C)c2n1` [31a, 3-(2-ethoxy-8-methylquinolin-6-yl)-1-isopropyl-1H-pyrazolo[3,4-d]pyrimidin-4-amine], for which, at recombinant PfCDPK4, the “fold more potent against PfCDPK4 than PfCDPK1” value is given as > 5 fold.

As for `CCOc1ccc2cc(-c3nn(CC(C)C)c4ncnc(N)c34)ccc2c1` [17q, 3-(6-ethoxynaphthalen-2-yl)-1-isobutyl-1H-pyrazolo[3,4-d]pyrimidin-4-amine], the GI50 in data set [1] and in data set [3] was > 30000 nM each time. Further, the IC50 amounted to 14 nM at recombinant PfCDPK4 and 2700 nM at Abl tyrosine kinase. Besides, at recombinant PfCDPK4 (relative to 17a), the “fold more potent against PfCDPK4 than i-Pr analog 17a” value is recorded as “more than 30 fold”. In addition, the EC50 in data set [2] is < 40 nM.
